According to the NIST ThermoML archive (doi:10.1016/j.jct.2005.04.015):

Assay: excess molar enthalpy (molar enthalpy of mixing); xn = mol fraction of the nth substance listed
Conditions: Liquid, Flow calorimetry

CCOC=O [ethyl methanoate] + CCCCO
excess molar enthalpy [kJ/mol]
Conditions | 298.15 K | 308.15 K
5000 kPa, x1 = 0.0499 | 0.385 | –
5000 kPa, x1 = 0.1005 | 0.712 | –
5000 kPa, x1 = 0.1488 | 0.97 | –
5000 kPa, x1 = 0.2008 | 1.19 | –
5000 kPa, x1 = 0.2505 | 1.36 | –
5000 kPa, x1 = 0.3009 | 1.48 | –
5000 kPa, x1 = 0.3488 | 1.58 | –
5000 kPa, x1 = 0.4006 | 1.64 | –
5000 kPa, x1 = 0.4498 | 1.68 | –
5000 kPa, x1 = 0.4997 | 1.67 | –
5000 kPa, x1 = 0.6015 | 1.57 | –
5000 kPa, x1 = 0.65 | 1.49 | –
5000 kPa, x1 = 0.6991 | 1.38 | –
5000 kPa, x1 = 0.7489 | 1.23 | –
5000 kPa, x1 = 0.7993 | 1.05 | –
5000 kPa, x1 = 0.8503 | 0.847 | –
5000 kPa, x1 = 0.8983 | 0.618 | –
5000 kPa, x1 = 0.9507 | 0.305 | –
10000 kPa, x1 = 0.0497 | 0.38 | –
10000 kPa, x1 = 0.1002 | 0.709 | –
10000 kPa, x1 = 0.1501 | – | 1.08
10000 kPa, x1 = 0.1514 | 0.975 | –
10000 kPa, x1 = 0.1999 | – | 1.31
10000 kPa, x1 = 0.2003 | 1.18 | –
10000 kPa, x1 = 0.2499 | 1.33 | –
10000 kPa, x1 = 0.2504 | – | 1.5
10000 kPa, x1 = 0.2989 | – | 1.63
10000 kPa, x1 = 0.3002 | 1.45 | –
10000 kPa, x1 = 0.3508 | – | 1.74
10000 kPa, x1 = 0.3513 | 1.56 | –
10000 kPa, x1 = 0.3998 | 1.61 | –
10000 kPa, x1 = 0.4007 | – | 1.8
10000 kPa, x1 = 0.449 | 1.64 | –
10000 kPa, x1 = 0.4514 | – | 1.83
10000 kPa, x1 = 0.4989 | 1.64 | –
10000 kPa, x1 = 0.4998 | – | 1.83
10000 kPa, x1 = 0.549 | – | 1.8
10000 kPa, x1 = 0.5494 | 1.61 | –
10000 kPa, x1 = 0.5988 | – | 1.73
10000 kPa, x1 = 0.6007 | 1.55 | –
10000 kPa, x1 = 0.6492 | 1.47 | 1.64
10000 kPa, x1 = 0.6984 | 1.36 | –
10000 kPa, x1 = 0.7004 | – | 1.51
10000 kPa, x1 = 0.7482 | 1.2 | –
10000 kPa, x1 = 0.7493 | – | 1.36
10000 kPa, x1 = 0.7987 | 1.02 | 1.18
10000 kPa, x1 = 0.8488 | – | 0.953
10000 kPa, x1 = 0.8499 | 0.809 | –
10000 kPa, x1 = 0.8996 | – | 0.691
10000 kPa, x1 = 0.9018 | 0.559 | –
10000 kPa, x1 = 0.9506 | 0.314 | –

CCOC=O [ethyl methanoate] + CCCO
excess molar enthalpy [kJ/mol]
Conditions | 298.15 K | 308.15 K
5000 kPa, x1 = 0.0488 | 0.296 | –
5000 kPa, x1 = 0.1003 | 0.627 | –
5000 kPa, x1 = 0.1515 | 0.888 | –
5000 kPa, x1 = 0.1993 | 1.08 | –
5000 kPa, x1 = 0.2498 | 1.24 | –
5000 kPa, x1 = 0.3 | 1.36 | –
5000 kPa, x1 = 0.3498 | 1.44 | –
5000 kPa, x1 = 0.3992 | 1.5 | –
5000 kPa, x1 = 0.4512 | 1.52 | –
5000 kPa, x1 = 0.5 | 1.51 | –
5000 kPa, x1 = 0.5513 | 1.48 | –
5000 kPa, x1 = 0.5995 | 1.43 | –
5000 kPa, x1 = 0.6501 | 1.35 | –
5000 kPa, x1 = 0.7003 | 1.24 | –
5000 kPa, x1 = 0.7502 | 1.11 | –
5000 kPa, x1 = 0.7998 | 0.939 | –
5000 kPa, x1 = 0.849 | 0.758 | –
5000 kPa, x1 = 0.9006 | 0.517 | –
5000 kPa, x1 = 0.9491 | 0.279 | –
10000 kPa, x1 = 0.0487 | 0.331 | 0.294
10000 kPa, x1 = 0.1 | 0.66 | –
10000 kPa, x1 = 0.1511 | 0.92 | 0.925
10000 kPa, x1 = 0.1988 | 1.11 | 1.13
10000 kPa, x1 = 0.2492 | 1.27 | 1.29
10000 kPa, x1 = 0.2993 | 1.39 | 1.42
10000 kPa, x1 = 0.349 | 1.46 | 1.51
10000 kPa, x1 = 0.4013 | 1.52 | 1.57
10000 kPa, x1 = 0.4504 | 1.55 | 1.6
10000 kPa, x1 = 0.4992 | 1.54 | 1.6
10000 kPa, x1 = 0.5505 | 1.51 | 1.56
10000 kPa, x1 = 0.5987 | 1.46 | 1.5
10000 kPa, x1 = 0.6493 | 1.38 | 1.41
10000 kPa, x1 = 0.6996 | 1.26 | 1.3
10000 kPa, x1 = 0.7496 | 1.13 | 1.16
10000 kPa, x1 = 0.7993 | 0.97 | 0.98
10000 kPa, x1 = 0.8513 | 0.771 | 0.776
10000 kPa, x1 = 0.9003 | 0.551 | 0.56
10000 kPa, x1 = 0.949 | 0.301 | 0.269
